Values joined by “and” are separate entries in the source; they are usually repeats but may differ in a detail not shown here. Identical values can stand only once.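 Results reflect a 48-hour exposure of cells in 96-well plates to compound at five concentrations. At the GI50, growth is halved. TGI: concentration producing complete growth inhibition.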
Tests used:
Experiment in all cases: DTP human tumour cell line panel, 48 h
UACC-257 melanoma = system: UACC-257 melanoma
HCC-2998 colon = system: HCC-2998 colon
SK-MEL-2 melanoma = system: SK-MEL-2 melanoma
TK-10 renal = system: TK-10 renal
OVCAR-5 ovarian = system: OVCAR-5 ovarian
HT29 colon = system: HT29 colon
SF-539 CNS = system: SF-539 CNS
IGROV1 ovarian = system: IGROV1 ovarian
CCRF-CEM leukemia = system: CCRF-CEM leukemia
786-0 renal = system: 786-0 renal

SMILES | TGI (UACC-257 melanoma) | TGI (HCC-2998 colon) | TGI (SK-MEL-2 melanoma) | TGI (TK-10 renal) | TGI (OVCAR-5 ovarian) | TGI (HT29 colon) | TGI (SF-539 CNS) | TGI (IGROV1 ovarian) | TGI (CCRF-CEM leukemia) | TGI (786-0 renal) | GI50 (UACC-257 melanoma) | GI50 (HCC-2998 colon) | GI50 (SK-MEL-2 melanoma) | GI50 (TK-10 renal) | GI50 (OVCAR-5 ovarian) | GI50 (HT29 colon) | GI50 (SF-539 CNS) | GI50 (IGROV1 ovarian) | GI50 (CCRF-CEM leukemia) | GI50 (786-0 renal)
O=C1/C(=C/c2ccccc2)CN(C(=O)Oc2ccc(Cl)cc2)C/C1=C\c1ccccc1 | 4.33 µM | 2.99 µM | 16.5 µM | 14.9 µM | 23.2 µM | 2.97 µM | 5.92 µM | 10.2 µM | 6.39 µM | 3.96 µM |  |  |  |  |  |  |  |  |  | 
Cn1c(-c2nonc2N)nc2cnccc21 | > 25 µM | > 25 µM | > 25 µM | > 25 µM | > 25 µM | > 25 µM | > 25 µM | > 25 µM | > 25 µM | > 25 µM | > 25 µM | > 25 µM | > 25 µM | 11.3 µM | > 25 µM | > 25 µM | 12.2 µM | > 25 µM | > 25 µM | > 25 µM
O=C(O)Cc1c[nH]c2ccc(F)cc12 | > 100 µM | > 100 µM | > 100 µM | > 100 µM | > 100 µM | > 100 µM | > 100 µM | > 100 µM | > 100 µM | > 100 µM |  |  |  |  |  |  |  |  |  | 
O=c1c(Cl)c(Cl)cnn1-c1ccccc1 | 14.1 µM and 48.4 µM | 9.66 µM and 6.39 µM | 15.5 µM and 14.5 µM | 24.7 µM and 29.8 µM | 38.8 µM and 19.8 µM | 3.38 µM and 8.06 µM | 10.2 µM and 23.2 µM | 3.37 µM and 21.5 µM | 9.58 µM and 5.53 µM | 11.1 µM and 12.1 µM |  |  |  |  | 19.7 µM and 9.53 µM | 1.75 µM and 3.77 µM | 4.74 µM and 9.8 µM | 1.81 µM and 7.02 µM | 0.825 µM and 1.8 µM | 
COc1cc2c(NCCCCCCO[N+](=O)[O-])ncnc2c(OC)c1OC | 36.5 µM | 17.2 µM | 53.9 µM | 49.4 µM | > 92.7 µM | > 62 µM | 71.1 µM | > 84.4 µM | 67.8 µM | 69.2 µM |  |  |  |  |  |  |  |  |  | 
C#CC(C)(C)Oc1cc(O)c2c(=O)c3ccccc3n(C)c2c1 | > 100 µM | > 100 µM | > 100 µM | > 100 µM | > 100 µM | > 100 µM | 58.1 µM | > 100 µM | > 100 µM | > 100 µM |  |  |  |  |  |  |  |  |  | 
COc1cc2c(c(O)c1C)C(=O)C(Cl)=CC2=O | 18.7 µM | 44.8 µM | 31.2 µM | 15.3 µM | 44.3 µM | 21.9 µM | 33.5 µM | 40.2 µM | 16 µM | 28.2 µM |  |  |  |  |  |  |  |  |  | 
CCN1CCN(c2nc(NCCNc3ccnc4cc(Cl)ccc34)c3ccccc3n2)CC1 | 4.8 µM | 4.91 µM | 4.33 µM | 6.02 µM | 9.14 µM | 7.47 µM | 3.36 µM | 4.69 µM | 7.59 µM | 2.44 µM | 2.62 µM | 1.69 µM | 2.07 µM | 2.42 µM | 2.56 µM | 0.793 µM | 1.83 µM | 1.62 µM | 0.759 µM | 1.03 µM
OC(c1cccc(C(F)(F)F)c1)c1cnccc1NC1CCCCCC1 (stereo not given) | 4.66 µM | 3.36 µM | 3.34 µM | 3.24 µM | 3.76 µM | 3.72 µM | 3.15 µM | 3.43 µM | 7.98 µM | 3.08 µM | 2.36 µM | 1.74 µM | 1.71 µM | 1.74 µM | 1.7 µM | 1.78 µM | 1.71 µM | 1.7 µM | 2.56 µM | 1.62 µM
COC(=O)C(CC(=O)c1cc2c(cc1I)OCO2)Cc1cc(OC)c(OC)c(OC)c1I (stereo not given) | > 100 µM | > 100 µM | > 100 µM | > 100 µM | > 100 µM | > 100 µM | > 100 µM | > 100 µM | > 100 µM | > 100 µM |  |  |  |  |  |  |  |  |  | 
CN1CCN(Cc2ccc(NC(=O)c3cncc(C#Cc4cnc(N)c5ccccc45)c3)cc2C(F)(F)F)CC1 | 1.27 µM | 0.878 µM | 0.697 µM | 1 µM | 1.11 µM | 1.29 µM | 0.792 µM | 0.615 µM | 1.44 µM | 0.89 µM | 0.605 µM | 0.42 µM | 0.196 µM | 0.466 µM | 0.457 µM | 0.28 µM | 0.38 µM | 0.127 µM | 0.125 µM | 0.423 µM
CC1=C[C@@H]2Cc3occc3C(C)(C)[C@@H]2CC1 | 44.7 µM | 36.2 µM | 24.5 µM | 45.4 µM | 50.3 µM | 30.3 µM | 58.7 µM | > 10 µM | 35.6 µM | 34.1 µM |  |  |  |  |  |  |  |  |  | 
C[C@@H]1Cc2c([nH]c3ccccc23)[C@@H](c2c(F)cc(/C=C/C(=O)O)cc2F)N1CC(C)(C)F | 49.7 µM | 25.6 µM | 32.8 µM | 39.4 µM | 46.8 µM | 31.3 µM | 32.4 µM | 37.2 µM | 33.8 µM | 28.1 µM | 21.7 µM | 10.4 µM | 13.8 µM | 15.9 µM | 22.2 µM | 14.5 µM | 14.5 µM | 16.4 µM | 12 µM | 14.2 µM
CC1(C)N=C(N)N=C(N)N1c1ccc(CCCCc2ccc(S(=O)(=O)F)cc2Cl)c(Cl)c1 | 64 µM | 67.1 µM | 20.3 µM | 231 µM | 198 µM | 298 µM | 13.9 µM | 106 µM | 8.28 µM | 76.9 µM |  |  |  |  |  |  |  |  |  | 
O=C1CSC(N2CCN(c3cccc(Cl)c3)CC2)=N1 | > 100 µM | > 100 µM | > 100 µM | > 100 µM | > 100 µM | > 100 µM | > 100 µM | > 100 µM | > 100 µM | > 100 µM | > 100 µM | > 100 µM | > 100 µM | > 100 µM | > 100 µM | 46 µM | > 100 µM | > 100 µM | > 100 µM | > 100 µM
CC1=C2[C@@H](CC1)[C@]1(C)O[C@@](C(C)C)(C[C@H]1OC(=O)[C@H](C)O)[C@H]2OC(=O)/C=C/c1ccccc1 | 34.1 µM | 28.2 µM | 33 µM | 32 µM | 36.2 µM | 30 µM | 30.9 µM | 49.8 µM | 41.9 µM | 25.4 µM | 17 µM | 13.4 µM | 16.1 µM | 16.3 µM | 17.7 µM | 13.6 µM | 15 µM | 19.2 µM | 16.2 µM | 3.26 µM
CN=C1NC(=O)/C(=C/c2ccc3ncccc3c2)S1 | > 25 µM | > 25 µM | 14.4 µM | > 25 µM | > 25 µM | > 25 µM | > 25 µM | > 25 µM | > 25 µM | > 25 µM | 7.18 µM | > 20 µM | 5.42 µM | 6.02 µM | 9.52 µM | 9.14 µM | 5.88 µM | 8.53 µM | 7.81 µM | 10.7 µM
Cn1cc(C2=C(c3ccc(OC[C@@H](O)CO)cc3)C(=O)NC2=O)c2ccccc21 | > 25 µM | > 25 µM | > 25 µM | > 25 µM | > 25 µM | > 25 µM | > 25 µM | > 25 µM | > 25 µM | > 25 µM | > 25 µM | > 25 µM | > 25 µM | > 25 µM | > 25 µM | > 25 µM | > 25 µM | > 25 µM | > 25 µM | > 25 µM
NNC(=O)c1cnn(-c2ccnc3c(C(F)(F)F)cccc23)c1N | > 100 µM | > 100 µM | > 100 µM | > 100 µM | > 100 µM | > 100 µM | > 100 µM | > 100 µM | > 100 µM | > 100 µM | > 100 µM | > 100 µM | > 100 µM | > 100 µM | > 100 µM | > 100 µM | > 100 µM | > 100 µM | > 100 µM | > 100 µM
COc1ccccc1NC(=O)c1ccc(/C=C/C(=O)c2nccn2C)cc1 | 10.1 µM | 0.912 µM | 10.8 µM | 9.53 µM | 1.73 µM | 1.78 µM | 1.07 µM | 1.34 µM | 8.01 µM | 1.34 µM | 0.972 µM | 0.487 µM | 1.9 µM | 0.811 µM | 0.619 µM | 0.644 µM | 0.495 µM | 0.523 µM | 0.669 µM | 0.542 µM
NS(=O)(=O)c1ccc(-n2nc(-c3ccc(Br)cc3)ccc2=O)cc1 | > 10 µM | > 10 µM | > 10 µM | > 10 µM | > 10 µM | > 10 µM | > 10 µM | > 10 µM | > 10 µM | > 10 µM | > 10 µM | > 10 µM | > 10 µM | > 10 µM | > 10 µM | > 10 µM | > 10 µM | > 10 µM | > 10 µM | > 10 µM
CC[n+]1ccc2c(c1)C(=O)c1nccc3c1c-2nc1ccccc13 | 9.06 µM | 4.97 µM | 6.08 µM | 16.8 µM | 19.4 µM | 23.1 µM | 1.47 µM | 10.9 µM | 14.4 µM | 2.97 µM | 3.42 µM | 1.05 µM | 1.35 µM | 4.77 µM | 6.88 µM | 4.15 µM | 0.489 µM | 1.76 µM | 1.39 µM | 0.768 µM

Source: PubChem BioAssay (NCI)
